The AC50 is the midpoint of the concentration-response curve, whichever way the signal moves. Low readings indicate activity at low concentration, high ones activity only at high concentration.

AC50 data for 13 molecules are collected here from patent US20230104936A1, “TRPML MODULATORS” (Casma Therapeutics, Inc., priority 2019, published 2023).

SMILES strings stand for the structures.

In the test the test system is TFEB. The test is described as follows: TFEB nuclear translocation assay, HeLa wt cells. Format: cell-based. The following applies: 2 hrs compound treatment, Table 1 does not say HeLa wt or TRPML1 KO. The method, boiled down: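 TFEB translocation into the nucleus of HeLa wt cells is scored by high-content immunofluorescence after 2 hrs of compound treatment at 37° C, reported as AC50.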

For the molecule `COc1ccc(S(=O)(=O)Nc2ccccc2OCc2ccc(F)cc2F)cc1` [Compound A-187, N-(2-((2,4-difluorobenzyl)oxy)phenyl)-4-methoxybenzenesulfonamide], the AC50 (Homo sapiens, HeLa, 2 h) is at least 10000 nM.
The same measure, in the same setting: in the case of `CN(C)S(=O)(=O)c1ccc(S(=O)(=O)Nc2ccccc2N2CCC(C)(c3ccccc3Cl)CC2)cc1` [Compound A-183, N4-{2-[4-(2-chlorophenyl)-4-methylpiperidin-1-yl]phenyl}-N1,N1-dimethylbenzene-1,4-disulfonamide] it was at most 2000 nM.
The same measure, in the same setting: in the case of `COc1ccc(S(=O)(=O)Nc2ccccc2N2CC(Cc3ccc(F)cc3F)C2)cc1` [Compound A-219, N-(2-{3-[(2,4-difluorophenyl)methyl]azetidin-1-yl}phenyl)-4-methoxybenzene-1-sulfonamide] it was at least 10000 nM.
Molecule `CC(c1cccc(F)c1N1CCC(CN2C3CCC2COC3)CC1)S(=O)(=O)c1ccc(S(=O)(=O)N(C)C)cc1` (stereo not shown) [Compound A-855, 4-((1-(2-(4-((3-oxa-8-azabicyclo[3.2.1]octan-8-yl)methyl)piperidin-1-yl)-3-fluorophenyl)ethyl)sulfonyl)-N,N-dimethylbenzenesulfonamide] showed an AC50 of 2010 to 8000 nM.
On the same count and under the same terms, in the case of `CC(c1cccc(F)c1N1CCCCC1)S(=O)(=O)c1ccc(S2(=O)=NCCC2)cc1` (single isomer, unassigned) [Compound A-992, 1-(4-((1-(3-fluoro-2-(piperidin-1-yl)phenyl)ethyl)sulfonyl)phenyl)-4,5-dihydro-3H-isothiazole 1-oxide] it was at least 10000 nM.
Molecule `Cc1ccc(S(=O)(=O)Nc2ccccc2-n2ccc(-c3ccc(Cl)cc3F)c2)cc1` [Compound A-93, N-{2-[3-(4-chloro-2-fluorophenyl)-1H-pyrrol-1-yl]phenyl}-4-methylbenzene-1-sulfonamide] showed a concentration at half-maximal activity (AC50) (Homo sapiens, HeLa, 2 h) of at least 10000 nM.
The same measure, in the same setting: in the case of `COCC1(C)CCN(c2ccccc2NS(=O)(=O)Cc2ccc(C)cc2F)CC1` [Compound A-709, 1-(2-fluoro-4-methylphenyl)-N-{2-[4-(methoxymethyl)-4-methylpiperidin-1-yl]phenyl}methanesulfonamide] it was 2010 to 8000 nM; in that of `Cc1nn(S(=O)(=O)c2ccc(S(=O)(=O)N(C)C)cc2)cc1N1CCC(c2ccc(Cl)cc2F)CC1` [Compound A-50, 4-((4-(4-(4-chloro-2-fluorophenyl)piperidin-1-yl)-3-methyl-1H-pyrazol-1-yl)sulfonyl)-N,N-dimethylbenzenesulfonamide], 2010 to 8000 nM.
In turn, `Cc1cnc(N2CCC(CN3CCC(F)(F)CC3)CC2)c(C(C)S(=O)(=O)c2ccc(S(=O)(=O)N(C)C)cc2)c1` (single isomer, unassigned) [Compound A-990, 4-((1-(2-(4-((4,4-difluoropiperidin-1-yl)methyl)piperidin-1-yl)-5-methylpyridin-3-yl)ethyl)sulfonyl)-N,N-dimethylbenzenesulfonamide] returned an AC50 of at most 2000 nM.
Take `CCOCCC1CCN(c2ccccc2NS(=O)(=O)c2ccc(S(=O)(=O)N(C)C)cc2)CC1` [Compound A-498, N4-{2-[4-(2-ethoxyethyl)piperidin-1-yl]phenyl}-N1,N1-dimethylbenzene-1,4-disulfonamide]: the AC50 (Homo sapiens, HeLa, 2 h) was at most 2000 nM.
On the same count and under the same terms, in the case of `CN1C(=O)c2cc(F)ccc2C12CCN(c1ccccc1NS(=O)(=O)c1ccc(S(=O)(=O)N(C)C)cc1)CC2` [Compound A-301, N4-(2-{5-fluoro-2-methyl-3-oxo-2,3-dihydrospiro[isoindole-1,4′-piperidin]-1′-yl}phenyl)-N1,N1-dimethylbenzene-1,4-disulfonamide] it was at most 2000 nM; in that of `CN(C)S(=O)(=O)c1ccc(S(=O)(=O)Nc2ccccc2[C@H]2CC[C@H](c3ccc(Cl)cc3F)CC2)cc1` [Compound A-70, N1-(2-(4-(4-chloro-2-fluorophenyl)cyclohexyl)phenyl)-N4,N4-dimethylbenzene-1,4-disulfonamide], at most 2000 nM.
`CCOC1(C)CCN(c2ccccc2NS(=O)(=O)c2ccc(S(=O)(=O)N(C)C)cc2)CC1` [Compound A-523, N4-[2-(4-ethoxy-4-methylpiperidin-1-yl)phenyl]-N1,N1-dimethylbenzene-1,4-disulfonamide] had a half-maximal activity concentration (AC50) (Homo sapiens, HeLa, 2 h) of at most 2000 nM.
